In patent US20160053316A1, “Systems and Methods for Determining a C-Peptide Receptor, C-Peptide Receptor, and Methods of Using Same” (Saint Louis University, priority 2012, published 2016):

Tests used:
KATOIII cells = test: C-peptide-induced cFos mRNA expression (RT-PCR) in KATOIII cells; type: cell-based, human
Experimental: In utilizing the methodology to determine a C-peptide receptor, three human cell lines were determined (101) to respond to treatment with C-peptide with an up regulation of cFos message as determined by RT-PCR. These three were KATOIII (Human Stomach Carcinoma), HEK 293 (human embryonic kidney cells) and TF-1 (an erythroleukemia cell line). The results of tests to show responsiveness are provided graphically in FIGS. 2, 3, and 4. When these three cell lines were screened for the expression of known orphan GPCRs (103), 24 of the approximately 125 orphan GPCRs were expressed by all three cell types as indicated by the table of FIG. 5. Using bioinformatics, the pool of FIG. 5 can be narrowed (105) by eliminating any candidates already matched to other ligands or that had significant homology to GPCRs that bind to non-peptide targets (15 in this case). […] One GPCR (GPR107) could be eliminated as it was recently determined that this was the cognate receptor for neurostatin. […]
To evaluate whether anti-GPR146ex-induced enhancement of receptor capping and co-localization corresponded with an increase in C-peptide-induced cFos expression, KATOIII cells were treated with either vehicle (control media), 1 nM C-peptide, anti-GPR146ex (1:500), or anti-GPR146ex and 1 nM C-peptide for one hour at 37 degrees Celsius. […] Changes in cFos mRNA expression were evaluated using real time PCR (RT-PCR).

HEK293 cells = test: C-peptide-induced cFos mRNA expression (RT-PCR) in HEK293 cells; type: cell-based, human; details: treatment with C-peptide (FIG. 3)
Experimental: (§1) In utilizing the methodology to determine a C-peptide receptor, three human cell lines were determined (101) to respond to treatment with C-peptide with an up regulation of cFos message as determined by RT-PCR. These three were KATOIII (Human Stomach Carcinoma), HEK 293 (human embryonic kidney cells) and TF-1 (an erythroleukemia cell line). The results of tests to show responsiveness are provided graphically in FIGS. 2, 3, and 4. When these three cell lines were screened for the expression of known orphan GPCRs (103), 24 of the approximately 125 orphan GPCRs were expressed by all three cell types as indicated by the table of FIG. 5. Using bioinformatics, the pool of FIG. 5 can be narrowed (105) by eliminating any candidates already matched to other ligands or that had significant homology to GPCRs that bind to non-peptide targets (15 in this case). This is also shown in FIG. 5 with the items that are eliminated darkened. One GPCR (GPR107) could be eliminated as it was recently determined that this was the cognate receptor for neurostatin. This also allowed it to be used as a convenient control as evidenced later herein.

TF-1 cells = test: C-peptide-induced cFos mRNA expression (RT-PCR) in TF-1 cells; type: cell-based, human; details: treatment with C-peptide (FIG. 4)
Experimental: as §1

GPR146 = molecular target: T1, GPR146 (Homo sapiens, UniProt Q96CH1); test: cFos response to C-peptide in siRNA-transfected KATOIII cells; type: cell-based; details: 1 nmole C-peptide
T1 construct: endogenous in cells; host or cells: KATOIII (human stomach carcinoma)
Experimental: Once the hierarchical candidates were identified and ranked, KATOIII cells were then transfected with siRNA (Integrated DNA technologies) (111) directed against either GPR107 (control), GPR146 (most likely candidate not yet tested) or eGFP (green fluorescent protein-control) using […] (Invitrogen). Five hours later, the media was changed to serum free control media (ATCC) and the serum was starved overnight. Twenty-four (24) hours after transfection with siRNA, cells were treated with 1 nmole C-peptide (Phoenix Pharmaceuticals) for 1 hour, then lysed and RNA were isolated using an RNeasy Kit (Qiagen). RNA was used as a template from the production of cDNA, and changes in cFos expression were determined using RT-PCR (BioRad 2x iQ SyberGreen Master Mix, using a BioRad CFX real time system). […] As this produced the desired negative response (113), GPR146 was the target GPCR (115). The receptiveness of GPR146 to C-peptide has since been verified by additional conventional tests.

T1 sequence (Q96CH1 whole entry): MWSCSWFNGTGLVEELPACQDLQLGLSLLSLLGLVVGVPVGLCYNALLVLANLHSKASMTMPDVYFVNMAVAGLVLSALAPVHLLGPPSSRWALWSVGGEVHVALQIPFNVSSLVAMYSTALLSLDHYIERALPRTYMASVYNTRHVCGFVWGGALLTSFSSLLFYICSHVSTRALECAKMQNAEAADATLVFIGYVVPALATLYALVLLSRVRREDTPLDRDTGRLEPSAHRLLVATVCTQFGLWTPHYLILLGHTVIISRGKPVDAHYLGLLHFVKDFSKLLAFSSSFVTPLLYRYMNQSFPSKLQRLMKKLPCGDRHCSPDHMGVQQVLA

C-peptide
cFos mRNA expression, material alone (KATOIII cells; one hour at 37 degrees Celsius, 1 nM C-peptide or anti-GPR146ex 1:500 alone (FIG. 7)): increased cFos
cFos mRNA expression (KATOIII cells; treatment with C-peptide (FIG. 2)): increase in cFos mRNA expression
cFos mRNA expression (HEK293 cells): increase in cFos mRNA expression
cFos mRNA expression (TF-1 cells): increase in cFos mRNA expression
cFos expression (GPR146; KATOIII cells transfected with Vehicle, GPR107 siRNA or eGFP siRNA (controls), 1 hour): increase in cFos
cFos expression (GPR146; KATOIII cells with GPR146 compromised by siRNA, 1 hour (FIG. 6)): failed to respond
